Laboratory results taken from ChEMBL document CHEMBL1201862, “PubChem BioAssay data set” (2004).
Calls of active or inactive are those of the source.

Key:
Mu-type opioid receptor = Mu-type opioid receptor (Homo sapiens, UniProt P35372); format: functional, cell-based;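 further: U2OS cells with beta-arrestin recruitment to OPRM1 by beta-gal complementation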
[1] = biological target: 5-hydroxytryptamine receptor 2A (Mus musculus, UniProt P35363); format: functional, cell-based;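 further: CHO-K1 cells with tagged receptor and beta-arrestin; agonist potency measured as compound-induced activation of the receptor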
Sequence of 5-hydroxytryptamine receptor 2A (P35363 whole entry): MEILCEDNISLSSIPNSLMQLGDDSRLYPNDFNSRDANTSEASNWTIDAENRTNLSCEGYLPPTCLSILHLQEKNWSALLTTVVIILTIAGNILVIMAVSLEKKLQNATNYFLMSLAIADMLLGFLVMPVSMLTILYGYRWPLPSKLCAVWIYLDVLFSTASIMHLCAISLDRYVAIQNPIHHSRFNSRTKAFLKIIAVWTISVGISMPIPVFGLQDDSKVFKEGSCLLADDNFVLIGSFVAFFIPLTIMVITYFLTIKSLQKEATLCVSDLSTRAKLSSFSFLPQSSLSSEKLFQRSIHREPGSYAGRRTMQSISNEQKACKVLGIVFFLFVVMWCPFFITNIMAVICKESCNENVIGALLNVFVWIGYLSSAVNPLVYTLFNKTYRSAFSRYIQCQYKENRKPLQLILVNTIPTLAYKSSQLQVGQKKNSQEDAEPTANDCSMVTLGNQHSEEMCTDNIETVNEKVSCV

[2] = biological target: T1, Long-chain-fatty-acid--AMP ligase FadD28 (Mycobacterium tuberculosis, UniProt P9WQ59); test: Fluorescence polarization aasay to screen for inhibitors that compete for the binding of FadD28 to a bisubstrate Measured in Biochemical System Using Plate Reader - 2147-01_Inhibitor_Dose_CherryPick_Activity.; format: functional, Mycobacterium tuberculosis H37Rv
T1 sequence (P9WQ59 whole entry): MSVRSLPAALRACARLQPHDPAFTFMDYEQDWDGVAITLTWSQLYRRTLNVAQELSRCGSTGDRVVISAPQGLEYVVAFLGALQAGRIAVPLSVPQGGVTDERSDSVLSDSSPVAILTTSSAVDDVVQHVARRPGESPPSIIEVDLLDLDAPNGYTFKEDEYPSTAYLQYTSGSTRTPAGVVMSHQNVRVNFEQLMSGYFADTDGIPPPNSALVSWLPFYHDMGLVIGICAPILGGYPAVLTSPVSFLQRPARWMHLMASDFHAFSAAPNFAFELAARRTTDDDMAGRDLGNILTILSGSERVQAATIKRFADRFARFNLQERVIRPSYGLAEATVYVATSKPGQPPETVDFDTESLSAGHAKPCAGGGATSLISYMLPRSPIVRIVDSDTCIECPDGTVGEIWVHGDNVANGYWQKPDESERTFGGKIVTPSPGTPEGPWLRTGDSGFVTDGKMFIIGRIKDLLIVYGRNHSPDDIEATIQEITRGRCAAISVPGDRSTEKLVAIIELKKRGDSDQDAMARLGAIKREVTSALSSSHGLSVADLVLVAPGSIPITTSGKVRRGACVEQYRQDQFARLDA

cells = format: functional, cell-based
[3] = biological target: T2, Nuclear receptor subfamily 0 group B member 1 (Homo sapiens, UniProt P51843); format: functional, cell-based;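 further: HEK293T cells transfected with SF-1 and DAX-1 plus StAR promoter luciferase reporter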
T2 sequence (P51843 whole entry): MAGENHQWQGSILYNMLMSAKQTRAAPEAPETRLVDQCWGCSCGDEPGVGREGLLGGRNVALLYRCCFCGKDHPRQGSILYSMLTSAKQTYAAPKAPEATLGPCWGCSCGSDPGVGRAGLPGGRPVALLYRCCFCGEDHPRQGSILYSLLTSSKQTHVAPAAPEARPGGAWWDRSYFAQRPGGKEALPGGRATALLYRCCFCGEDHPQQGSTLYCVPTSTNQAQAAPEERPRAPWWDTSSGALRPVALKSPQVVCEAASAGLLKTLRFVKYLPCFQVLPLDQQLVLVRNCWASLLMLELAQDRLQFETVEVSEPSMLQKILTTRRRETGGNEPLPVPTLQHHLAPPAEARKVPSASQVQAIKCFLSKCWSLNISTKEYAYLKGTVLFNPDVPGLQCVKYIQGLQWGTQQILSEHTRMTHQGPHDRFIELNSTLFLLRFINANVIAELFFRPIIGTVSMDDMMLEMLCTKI

[4] = biological target: T3, RNA-binding protein pos-1 (Caenorhabditis elegans, UniProt G5EF15); test: disruptors of C. elegans POS-1 RNA interaction – biochemical, fluorescence polarization, dose response (AID 1964);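 further: purified POS-1 fused to maltose binding protein made in E. coli; potency of compounds blocking POS-1 binding to fluorescent RNA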
T3 sequence (G5EF15 whole entry): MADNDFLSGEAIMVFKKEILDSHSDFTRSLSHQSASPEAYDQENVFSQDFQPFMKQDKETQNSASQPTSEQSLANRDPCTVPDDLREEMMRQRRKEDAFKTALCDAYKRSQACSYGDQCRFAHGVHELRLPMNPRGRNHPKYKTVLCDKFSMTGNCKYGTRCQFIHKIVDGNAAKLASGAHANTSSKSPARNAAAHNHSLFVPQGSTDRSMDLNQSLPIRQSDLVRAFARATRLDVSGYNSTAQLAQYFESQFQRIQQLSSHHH

[5] = biological target: T4, Zinc finger protein mex-5 (Caenorhabditis elegans, UniProt Q9XUB2); test: potency of MEX-5 RNA-binding blockers – biochemical, C. elegans, fluorescence polarization, dose response (AID 1960)
T4 sequence (Q9XUB2 whole entry): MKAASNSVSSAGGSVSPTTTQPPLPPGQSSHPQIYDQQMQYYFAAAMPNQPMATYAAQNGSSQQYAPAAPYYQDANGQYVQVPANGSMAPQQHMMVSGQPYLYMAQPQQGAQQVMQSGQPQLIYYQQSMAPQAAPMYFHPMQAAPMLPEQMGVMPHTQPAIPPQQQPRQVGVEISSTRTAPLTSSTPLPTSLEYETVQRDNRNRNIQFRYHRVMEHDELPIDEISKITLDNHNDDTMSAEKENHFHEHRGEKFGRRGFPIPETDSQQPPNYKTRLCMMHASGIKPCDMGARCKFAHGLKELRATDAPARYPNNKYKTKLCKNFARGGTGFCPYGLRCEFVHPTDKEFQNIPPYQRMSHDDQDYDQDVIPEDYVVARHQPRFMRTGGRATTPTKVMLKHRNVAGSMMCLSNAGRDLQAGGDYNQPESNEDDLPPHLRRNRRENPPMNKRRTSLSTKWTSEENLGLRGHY

Large T antigen = Large T antigen (Simian virus 40, UniProt P03070); format: functional, Betapolyomavirus macacae;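 further: Confirmatory-stage PubChem screen for compounds that inhibit SV40 T antigen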
Sequence of Large T antigen (P03070 whole entry): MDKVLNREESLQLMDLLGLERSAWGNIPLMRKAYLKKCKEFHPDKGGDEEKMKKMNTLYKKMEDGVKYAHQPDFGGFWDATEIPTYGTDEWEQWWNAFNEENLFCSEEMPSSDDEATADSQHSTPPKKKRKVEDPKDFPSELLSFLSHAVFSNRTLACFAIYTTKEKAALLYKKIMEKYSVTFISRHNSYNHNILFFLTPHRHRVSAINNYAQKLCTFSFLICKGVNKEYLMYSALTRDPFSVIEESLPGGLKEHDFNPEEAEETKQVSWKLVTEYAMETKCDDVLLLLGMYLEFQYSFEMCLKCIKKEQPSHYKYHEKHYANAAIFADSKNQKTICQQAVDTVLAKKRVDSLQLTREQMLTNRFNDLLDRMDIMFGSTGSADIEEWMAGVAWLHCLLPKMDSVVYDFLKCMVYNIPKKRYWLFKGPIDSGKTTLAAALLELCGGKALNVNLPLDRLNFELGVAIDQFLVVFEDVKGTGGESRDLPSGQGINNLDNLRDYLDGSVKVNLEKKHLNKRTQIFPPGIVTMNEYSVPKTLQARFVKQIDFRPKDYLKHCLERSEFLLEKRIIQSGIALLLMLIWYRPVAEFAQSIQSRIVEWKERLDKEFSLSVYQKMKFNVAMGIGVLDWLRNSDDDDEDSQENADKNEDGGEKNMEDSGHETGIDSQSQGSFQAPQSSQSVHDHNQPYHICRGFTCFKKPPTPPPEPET

[6] = biological target: Induced myeloid leukemia cell differentiation protein Mcl-1 (Homo sapiens, UniProt Q07820); format: functional
Sequence of Induced myeloid leukemia cell differentiation protein Mcl-1 (Q07820 whole entry): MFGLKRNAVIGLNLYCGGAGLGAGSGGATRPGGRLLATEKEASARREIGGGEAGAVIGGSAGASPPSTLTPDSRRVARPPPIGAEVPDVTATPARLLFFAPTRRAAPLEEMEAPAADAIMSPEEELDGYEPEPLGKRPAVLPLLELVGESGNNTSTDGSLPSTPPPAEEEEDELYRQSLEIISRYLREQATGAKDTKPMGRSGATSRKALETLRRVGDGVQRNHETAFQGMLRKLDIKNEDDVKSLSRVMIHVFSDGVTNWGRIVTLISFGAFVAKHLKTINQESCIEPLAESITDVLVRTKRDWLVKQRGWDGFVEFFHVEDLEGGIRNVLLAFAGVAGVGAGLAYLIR

[7] = biological target: DNA (cytosine-5)-methyltransferase 1 (Homo sapiens, UniProt P26358); test: inhibition of DNA methylation by DNMT1 – biochemical, fluorescent molecular beacon, confirmation (AID 602386); format: functional
Sequence of DNA (cytosine-5)-methyltransferase 1 (P26358 whole entry): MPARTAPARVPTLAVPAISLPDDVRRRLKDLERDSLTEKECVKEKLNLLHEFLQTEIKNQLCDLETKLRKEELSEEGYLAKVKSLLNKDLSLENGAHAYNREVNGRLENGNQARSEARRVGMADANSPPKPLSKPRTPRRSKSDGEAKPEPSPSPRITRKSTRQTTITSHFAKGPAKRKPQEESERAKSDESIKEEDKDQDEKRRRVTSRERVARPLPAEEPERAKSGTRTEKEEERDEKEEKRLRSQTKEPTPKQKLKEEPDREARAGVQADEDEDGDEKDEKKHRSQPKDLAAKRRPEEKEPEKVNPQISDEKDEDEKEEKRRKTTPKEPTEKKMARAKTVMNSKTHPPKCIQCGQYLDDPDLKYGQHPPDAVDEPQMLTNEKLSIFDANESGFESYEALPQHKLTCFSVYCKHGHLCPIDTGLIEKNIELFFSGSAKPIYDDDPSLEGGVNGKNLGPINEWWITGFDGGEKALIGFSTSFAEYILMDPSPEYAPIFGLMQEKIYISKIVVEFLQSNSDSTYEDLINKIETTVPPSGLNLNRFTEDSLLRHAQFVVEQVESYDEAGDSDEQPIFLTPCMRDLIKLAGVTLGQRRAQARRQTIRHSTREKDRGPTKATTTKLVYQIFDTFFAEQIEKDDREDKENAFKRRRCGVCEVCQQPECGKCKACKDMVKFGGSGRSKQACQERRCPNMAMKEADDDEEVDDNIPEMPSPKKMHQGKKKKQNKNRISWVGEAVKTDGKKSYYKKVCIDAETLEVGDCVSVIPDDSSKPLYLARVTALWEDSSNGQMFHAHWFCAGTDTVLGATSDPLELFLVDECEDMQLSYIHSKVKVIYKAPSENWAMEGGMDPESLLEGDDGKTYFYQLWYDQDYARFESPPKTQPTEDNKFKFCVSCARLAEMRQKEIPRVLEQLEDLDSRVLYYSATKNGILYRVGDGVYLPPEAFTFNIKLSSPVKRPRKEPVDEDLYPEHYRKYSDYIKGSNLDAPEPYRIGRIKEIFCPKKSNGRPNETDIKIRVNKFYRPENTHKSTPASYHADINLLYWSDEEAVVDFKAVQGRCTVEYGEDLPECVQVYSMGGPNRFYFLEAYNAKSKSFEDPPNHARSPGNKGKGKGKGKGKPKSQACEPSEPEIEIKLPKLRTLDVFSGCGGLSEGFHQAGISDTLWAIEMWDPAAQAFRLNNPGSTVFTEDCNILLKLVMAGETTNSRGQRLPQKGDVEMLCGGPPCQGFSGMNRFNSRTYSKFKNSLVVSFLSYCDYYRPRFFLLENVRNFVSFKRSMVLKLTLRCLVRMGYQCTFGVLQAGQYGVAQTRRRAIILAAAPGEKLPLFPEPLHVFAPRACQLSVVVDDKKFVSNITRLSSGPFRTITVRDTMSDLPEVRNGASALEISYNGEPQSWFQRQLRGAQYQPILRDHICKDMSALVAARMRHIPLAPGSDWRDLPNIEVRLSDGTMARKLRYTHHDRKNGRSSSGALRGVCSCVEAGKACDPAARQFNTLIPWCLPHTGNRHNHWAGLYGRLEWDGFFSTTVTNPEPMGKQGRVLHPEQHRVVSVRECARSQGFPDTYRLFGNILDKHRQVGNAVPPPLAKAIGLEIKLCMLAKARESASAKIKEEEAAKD

[8] = biological target: T5, Small ubiquitin-related modifier 1 (Homo sapiens, UniProt P63165); test: SUMO1 protein interaction blockers, potency – biochemical, fluorescence polarization, uHTS hits, dose response (AID 624382); format: functional; conditions: read-out: IC50_Mean
T5 sequence (P63165 whole entry): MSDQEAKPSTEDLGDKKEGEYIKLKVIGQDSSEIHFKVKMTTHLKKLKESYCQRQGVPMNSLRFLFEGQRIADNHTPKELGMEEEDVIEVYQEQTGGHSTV

[9] = biological target: T5, Small ubiquitin-related modifier 1; test: SUMO1 protein-protein binding blockers, potency – biochemical, FRET, dose response (AID 624383); format: functional; conditions: read-out: IC50_Mean
[10] = biological target: T6, Histone-lysine N-methyltransferase NSD2 (Homo sapiens, UniProt O96028); format: biochemical
T6 sequence (O96028 whole entry): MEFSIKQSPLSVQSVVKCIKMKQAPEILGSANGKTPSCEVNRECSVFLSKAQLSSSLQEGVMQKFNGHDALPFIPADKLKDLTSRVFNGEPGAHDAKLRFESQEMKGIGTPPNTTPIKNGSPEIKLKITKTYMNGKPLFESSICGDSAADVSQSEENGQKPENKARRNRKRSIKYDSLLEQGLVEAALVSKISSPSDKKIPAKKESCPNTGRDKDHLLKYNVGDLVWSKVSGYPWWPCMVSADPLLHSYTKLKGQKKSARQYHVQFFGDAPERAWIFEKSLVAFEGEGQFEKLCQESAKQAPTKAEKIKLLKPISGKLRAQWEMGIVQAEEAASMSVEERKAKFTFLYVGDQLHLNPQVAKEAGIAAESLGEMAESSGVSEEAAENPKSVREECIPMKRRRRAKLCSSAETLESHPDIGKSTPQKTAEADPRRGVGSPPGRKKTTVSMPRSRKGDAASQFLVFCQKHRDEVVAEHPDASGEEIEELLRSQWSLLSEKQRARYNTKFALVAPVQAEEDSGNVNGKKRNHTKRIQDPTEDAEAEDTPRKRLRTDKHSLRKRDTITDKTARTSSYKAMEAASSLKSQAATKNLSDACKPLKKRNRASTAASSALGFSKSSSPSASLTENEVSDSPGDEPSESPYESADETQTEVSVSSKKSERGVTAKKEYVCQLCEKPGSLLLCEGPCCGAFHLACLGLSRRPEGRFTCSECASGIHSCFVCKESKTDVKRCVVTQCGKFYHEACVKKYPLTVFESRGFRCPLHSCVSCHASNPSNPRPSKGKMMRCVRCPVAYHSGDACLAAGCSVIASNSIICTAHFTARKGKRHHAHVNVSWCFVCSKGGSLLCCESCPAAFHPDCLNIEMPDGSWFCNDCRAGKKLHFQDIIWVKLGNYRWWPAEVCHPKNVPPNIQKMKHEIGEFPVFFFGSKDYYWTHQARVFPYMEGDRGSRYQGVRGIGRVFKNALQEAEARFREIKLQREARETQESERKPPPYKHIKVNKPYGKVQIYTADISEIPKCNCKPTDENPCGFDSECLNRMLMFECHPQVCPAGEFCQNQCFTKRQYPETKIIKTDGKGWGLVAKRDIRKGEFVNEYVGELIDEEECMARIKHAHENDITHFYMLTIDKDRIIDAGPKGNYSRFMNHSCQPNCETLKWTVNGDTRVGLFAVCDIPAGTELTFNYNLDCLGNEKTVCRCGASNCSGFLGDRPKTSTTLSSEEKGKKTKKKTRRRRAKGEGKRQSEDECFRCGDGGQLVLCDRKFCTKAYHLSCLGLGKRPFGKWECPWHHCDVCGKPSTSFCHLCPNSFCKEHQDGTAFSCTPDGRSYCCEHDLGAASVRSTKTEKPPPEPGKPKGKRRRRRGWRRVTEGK

[11] = biological target: Luciferin 4-monooxygenase (Photinus pyralis, UniProt P08659); test: Counter Screen for Luciferase-based Assay Positives. [Related pubchem assays: 620, 618, 411 ]
Sequence of Luciferin 4-monooxygenase (P08659 whole entry): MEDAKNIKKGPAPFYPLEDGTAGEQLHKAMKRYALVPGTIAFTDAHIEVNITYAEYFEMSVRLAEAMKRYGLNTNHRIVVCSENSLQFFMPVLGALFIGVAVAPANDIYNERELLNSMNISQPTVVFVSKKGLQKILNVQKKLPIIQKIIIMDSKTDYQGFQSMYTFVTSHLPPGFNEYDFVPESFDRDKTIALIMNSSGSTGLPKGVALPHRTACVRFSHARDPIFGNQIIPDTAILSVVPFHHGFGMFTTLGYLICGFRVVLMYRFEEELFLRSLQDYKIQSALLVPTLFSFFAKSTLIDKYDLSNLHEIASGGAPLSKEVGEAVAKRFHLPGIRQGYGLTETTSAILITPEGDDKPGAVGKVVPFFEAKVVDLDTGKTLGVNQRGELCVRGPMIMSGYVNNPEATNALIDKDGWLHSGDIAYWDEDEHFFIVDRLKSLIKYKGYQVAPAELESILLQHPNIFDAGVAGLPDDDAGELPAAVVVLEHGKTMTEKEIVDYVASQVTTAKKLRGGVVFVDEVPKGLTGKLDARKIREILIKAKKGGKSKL

[12] = Luminescence Cell-Based Dose Response HTS to Identify Inhibitors of 5'UTR Stem-Loop Driven Prion Protein mRNA Translation in H4 Neuroglioblastoma Cells. [Related pubchem assays: 1827 (Project Summary), 1813 (Primary HTS)]; format: functional
HT-1080 = test: HT1080 cell viability loss – fluorescence readout (AID 620); format: functional, cell-based; conditions: Homo sapiens
Protein skinhead-1 = biological target: T7, Protein skinhead-1 (Caenorhabditis elegans, UniProt P34707); format: functional
T7 sequence (P34707 whole entry): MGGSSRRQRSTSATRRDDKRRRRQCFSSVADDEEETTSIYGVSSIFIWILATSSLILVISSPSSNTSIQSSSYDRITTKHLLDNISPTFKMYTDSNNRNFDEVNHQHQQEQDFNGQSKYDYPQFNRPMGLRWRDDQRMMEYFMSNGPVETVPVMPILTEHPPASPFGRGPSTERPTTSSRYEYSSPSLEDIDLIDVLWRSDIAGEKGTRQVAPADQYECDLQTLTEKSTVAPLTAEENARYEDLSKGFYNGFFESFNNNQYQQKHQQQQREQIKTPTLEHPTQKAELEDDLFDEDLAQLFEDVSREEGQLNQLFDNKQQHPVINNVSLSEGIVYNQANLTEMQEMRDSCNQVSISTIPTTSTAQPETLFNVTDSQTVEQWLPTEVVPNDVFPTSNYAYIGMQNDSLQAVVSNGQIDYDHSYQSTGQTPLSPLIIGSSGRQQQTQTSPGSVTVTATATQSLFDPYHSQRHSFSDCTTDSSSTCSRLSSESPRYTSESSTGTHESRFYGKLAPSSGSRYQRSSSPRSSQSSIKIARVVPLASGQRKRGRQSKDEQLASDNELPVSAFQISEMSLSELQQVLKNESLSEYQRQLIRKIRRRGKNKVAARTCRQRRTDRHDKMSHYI

[13] = blockers of HIV-1 envelope-mediated cell-cell fusion – cherry-pick, dose response (AID 652057); format: functional, cell-based
[14] = viability loss in CEM21 cells – cell-based, CellTiter-Glo luminescence, cherry-picked, cytotoxicity control for viral fusion inhibitor project, dose response (AID 652042); format: functional;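 further: potency for signal decrease meaning cytotoxicity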
[15] = HIV-1 AD8 envelope cell-cell fusion blockers – cherry-pick, dose response (AID 652062); format: functional, cell-based;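 further: luciferase signal from cell-cell fusion driven by HIV-1 clade B AD8 Env; potency is for inhibitors of fusion seen as a drop in luminescence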
[16] = blockers of HIV-1 ZM109 envelope-driven cell-cell fusion – HeLa effector, CEM target cells, luciferase, cherry-pick, dose response (AID 652058); format: functional, cell-based;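 further: luciferase signal from HIV-1 Env mediated cell-cell fusion of effector and target cells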

Sequence of Mu-type opioid receptor (P35372 whole entry): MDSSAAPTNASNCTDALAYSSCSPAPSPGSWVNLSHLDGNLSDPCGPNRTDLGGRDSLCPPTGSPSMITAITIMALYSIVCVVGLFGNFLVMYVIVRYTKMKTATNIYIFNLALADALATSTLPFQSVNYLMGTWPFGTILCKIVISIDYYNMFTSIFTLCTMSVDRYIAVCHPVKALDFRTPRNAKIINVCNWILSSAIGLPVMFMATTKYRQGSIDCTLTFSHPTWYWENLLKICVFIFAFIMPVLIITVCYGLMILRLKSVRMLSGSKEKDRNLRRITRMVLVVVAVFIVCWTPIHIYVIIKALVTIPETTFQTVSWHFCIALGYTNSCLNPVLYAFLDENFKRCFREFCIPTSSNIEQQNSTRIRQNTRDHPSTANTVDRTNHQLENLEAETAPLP

With CCOC(=O)N1CCN(Cc2ccc(OCC(O)CN3CCCCC3)cc2)CC1 (centres undefined) the EC50 (Mu-type opioid receptor) was 92.5 µM (inactive) and the EC50 [1] was 2.22 µM (active).

In the case of c1cnc(N2CCN(Cc3ccc4c(c3)OCO4)CC2)nc1, the EC50 (Mu-type opioid receptor) was 92.5 µM (inactive) and the EC50 [1] was 0.00986 µM (active).

With CCc1cccc2c(C(=O)CN3C(=O)NC4(CCc5ccccc54)C3=O)c[nH]c12 (centres undefined) the AC50 [2] was 29.2 µM (active), the IC50 (cells) was > 67.5 µM (inactive) and the IC50 [3] was > 67.5 µM (inactive).

For O=C(COC(=O)c1ccc(O)cc1O)c1ccc(Cl)cc1, the IC50 (cells) was > 67.5 µM (inactive) and the IC50 [3] was > 67.5 µM (inactive).

With O=C(O)c1ccc(-n2cccc2/C=C2/NC(=O)N(c3ccccc3)C2=O)cc1 the EC50 [4] was > 300 µM (not active), the EC50 [5] was 71.1 µM (active) and the IC50 (Large T antigen) was > 100 µM (active). For the same molecule, the IC50 [6] was 3.51 µM (active), the IC50 [7] was 3.83 µM (active) and the IC50 [8] was > 66.6 µM (inactive). For the same molecule, the IC50 [9] was 9.62 µM (active) and the AC50 [10] was 5.87 µM (active).

With O=C(/C=C\Nc1ccccn1)c1ccccc1 the EC50 [11] was < 0.2 µM (active), the EC50 [12] was 10.7 µM (inconclusive) and the EC50 (HT-1080) was > 50 µM (not active). The IC50 (Protein skinhead-1) was 15.1 µM (active), the IC50 (cells) was > 67.5 µM (inactive) and the IC50 [3] was > 67.5 µM (inactive).

For CC[C@@H](C)[C@H](C(CC(=O)N1CCCC1[C@@H](OC)[C@H](C)C(=O)N[C@H](Cc1ccccc1)c1nccs1)OC)N(C)C(=O)[C@H](NC(=O)[C@@H](C(C)C)N(C)C)C(C)C (some centres undefined), the IC50 (cells) was > 67.5 µM (inactive) and the IC50 [3] was > 67.5 µM (inactive).

For CSCCC(=O)N1CC[C@@H](N2CCN(c3ccccc3F)CC2)[C@H](O)C1, the EC50 (Mu-type opioid receptor) was 92.5 µM (inactive) and the EC50 [1] was 41.7 µM (inactive).

In the case of COc1cccc(CNc2nc(NCc3ccccc3OC)nc3ccsc23)c1, the IC50 (Protein skinhead-1) was > 100 µM (inactive), the AC50 [13] was 31.9 µM (active) and the AC50 [14] was 68.5 µM (active). For the same molecule, the AC50 [15] was 16.8 µM (active).

For O=C(Nc1ccc(Cl)c(Cl)c1)N[C@H]1CC[C@H](CCn2cc(C3CCCCC3)nn2)O[C@@H]1CO, the AC50 [13] was 18.9 µM (active), the AC50 [14] was 61 µM (active) and the AC50 [16] was 16.8 µM (active). For the same molecule, the AC50 [15] was 43.9 µM (active).

With CCC1CS/C(=N\c2ccc(C)cc2)N1C(=O)CN1C(=O)NC2(CCCC2)C1=O (centres undefined) the IC50 (cells) was > 67.6 µM (inactive) and the IC50 [3] was > 67.6 µM (inactive).

With CC(=O)NCC1(c2ccccc2)CCN(CC2COc3ccccc3O2)CC1 (centres undefined) [ACOXATRINE] the EC50 (Mu-type opioid receptor) was 92.6 µM (inactive) and the EC50 [1] was 76.2 µM (inactive).
